In one test the target is T1, human GLUT1 (Homo sapiens, UniProt P11166).
T1 construct: Full length DNA was subcloned into pFastBac1 (Life Technologies) vector with a N-terminal hexahistidine tag; hexahistidine (thrombin-cleavable) (N, cleaved yes); made in house; host or cells: Sf21 insect cells (baculovirus, pFastBac1)
T1 sequence (P11166 1-492): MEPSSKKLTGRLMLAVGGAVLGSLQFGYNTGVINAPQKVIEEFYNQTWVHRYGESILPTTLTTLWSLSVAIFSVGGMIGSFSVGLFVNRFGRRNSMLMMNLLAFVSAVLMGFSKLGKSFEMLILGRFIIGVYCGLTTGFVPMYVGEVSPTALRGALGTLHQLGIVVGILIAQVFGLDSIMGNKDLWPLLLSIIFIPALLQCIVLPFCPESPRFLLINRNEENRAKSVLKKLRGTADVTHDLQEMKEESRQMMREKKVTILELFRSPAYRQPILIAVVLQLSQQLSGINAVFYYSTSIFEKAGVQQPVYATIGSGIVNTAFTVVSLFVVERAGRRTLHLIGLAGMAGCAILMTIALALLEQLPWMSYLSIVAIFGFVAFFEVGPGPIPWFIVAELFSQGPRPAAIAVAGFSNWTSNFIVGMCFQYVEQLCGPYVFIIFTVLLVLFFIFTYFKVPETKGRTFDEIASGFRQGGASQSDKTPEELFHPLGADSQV
Put plainly: entrance counter-flow transport assay, GLUT1-mediated glucose transport in proteoliposomes. The test is classed as biochemical. The method, then:
Human GLUT1 and GLUT5 were expressed recombinantly in insect cell culture. The purified proteins were reconstituted into proteoliposomes. To measure the inhibition of GLUT1 or GLUT5 transport activity we used entrance counter-flow transport assay. In GLUT1 and GLUT5 proteoliposomes, substrate transport reached steady state after one minute incubation at room temperature.
(§1) Proteoliposomes were generated according to the protocol from[30] with minor modifications. Liposomes were produced from a 95/5% (w/w) mix of soy phosphatidylcholine and cholesterol (Avanti Polar Lipids). Briefly, hexane-washed and vacuum-dried lipids were resuspended to 20 mg/ml in 100 mM KPi (pH 7.5), and then subjected to 11 freeze-and-thaw cycles in liquid nitrogen and room temperature water. The lipid mixture was extruded through a 0.1 μm polycarbonate filter. Prepared liposomes were destabilized with 4 mM Triton X-100 and mixed with purified protein in a 100:1 (w/w) ratio in 100 mM KPi (pH 7.5) 20% (v/v) glycerol, 200 mM (glucose or fructose). Detergent was removed by several additions of SM2 BioBeads (BioRad) and incubated overnight at 4 °C. After filtering out the BioBeads, proteoliposomes were diluted with 100 mM KPi (pH 7.5) 200 mM (glucose or fructose), and then collected by ultracentrifugation, at 200,000 × g and 4 °C, for 1 hour. The proteoliposomes pellet was resuspended in the above buffer so that O.D.600nm was ~30.
To measure hexose transport, we utilized entrance counter-flow assay. Transport was performed in a volume of 100 μL of 100 mM KPi (pH 7.5) buffer containing radioactive ^14C-hexose (4 μM fructose or 5 μM glucose) with inhibitors added before initiation of transport. Radioactive substrate uptake in GLUT1 and GLUT5 (wild-type or mutant) proteoliposomes was constant between 1 and 2 mins. The reaction was started by the addition of 3 μL concentrated proteoliposomes to the above solution and incubated at room temperature; the transport was stopped after one minute by addition of ice-chilled quench buffer [100 mM KPi (pH 5.5) and 100 mM LiCl]. The solution was filtered through a 0.4 μm pore size cellulose nitrate membrane filter (Whatman), and the filter was washed three times with quench buffer. The membrane filter was placed into a vial filled with BioSafe II scintillation liquid (Research Products International Corp.), and radioactivity was quantified with LS 6500 scintillation counter (Beckman). […] The transport assays were unaffected by 5% DMSO. Data is presented as relative activity normalized to radioactivity of no inhibitor added as 100% and empty proteoliposomes as 0%. Kinetic parameters were fitted by nonlinear algorithm plots using Prism (GraphPad Software).

The target of a further test is T2, human GLUT5 (Homo sapiens, UniProt P22732).
T2 construct: Full length DNA was subcloned into pFastBac1 (Life Technologies) vector with a N-terminal hexahistidine tag; hexahistidine (thrombin-cleavable) (N, cleaved yes); made in house; host or cells: Sf21 insect cells (baculovirus, pFastBac1)
T2 sequence (P22732 1-501): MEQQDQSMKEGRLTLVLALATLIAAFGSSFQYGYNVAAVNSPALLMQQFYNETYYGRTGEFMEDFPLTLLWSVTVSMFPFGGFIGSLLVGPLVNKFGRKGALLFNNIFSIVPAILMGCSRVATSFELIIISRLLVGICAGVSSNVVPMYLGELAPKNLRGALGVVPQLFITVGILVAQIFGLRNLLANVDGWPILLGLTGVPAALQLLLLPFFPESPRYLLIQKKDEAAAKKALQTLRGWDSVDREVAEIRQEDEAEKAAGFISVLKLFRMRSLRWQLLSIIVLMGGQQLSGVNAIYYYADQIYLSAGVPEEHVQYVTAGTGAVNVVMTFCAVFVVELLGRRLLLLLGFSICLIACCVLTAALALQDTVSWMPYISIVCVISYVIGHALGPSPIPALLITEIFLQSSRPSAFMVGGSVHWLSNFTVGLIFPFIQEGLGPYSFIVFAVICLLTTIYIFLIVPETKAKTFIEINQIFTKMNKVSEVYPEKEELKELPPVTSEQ
In words: entrance counter-flow transport assay, GLUT5-mediated fructose transport in proteoliposomes. It is filed as biochemical.
Source text: Human GLUT1 and GLUT5 were expressed recombinantly in insect cell culture. The purified proteins were reconstituted into proteoliposomes. To measure the inhibition of GLUT1 or GLUT5 transport activity we used entrance counter-flow transport assay.
as §1
To measure hexose transport, we utilized entrance counter-flow assay. Transport was performed in a volume of 100 μL of 100 mM KPi (pH 7.5) buffer containing radioactive ^14C-hexose (4 μM fructose or 5 μM glucose) with inhibitors added before initiation of transport. […] The reaction was started by the addition of 3 μL concentrated proteoliposomes to the above solution and incubated at room temperature; the transport was stopped after one minute by addition of ice-chilled quench buffer [100 mM KPi (pH 5.5) and 100 mM LiCl]. The solution was filtered through a 0.4 μm pore size cellulose nitrate membrane filter (Whatman), and the filter was washed three times with quench buffer. The membrane filter was placed into a vial filled with BioSafe II scintillation liquid (Research Products International Corp.), and radioactivity was quantified with LS 6500 scintillation counter (Beckman). […] Data is presented as relative activity normalized to radioactivity of no inhibitor added as 100% and empty proteoliposomes as 0%. Kinetic parameters were fitted by nonlinear algorithm plots using Prism (GraphPad Software).

Each structure is given as a SMILES string. Values joined by “and” are separate entries in the source; they are usually repeats but may differ in a detail not shown here. Equal values may be shown once.

As to `C=C1C[C@@]23CC[C@H]4[C@@](C)(CCC[C@@]4(C)C(=O)O[C@@H]4O[C@H](CO)[C@@H](O)[C@H](O)[C@H]4O)[C@@H]2CC[C@]1(O[C@@H]1O[C@H](CO)[C@@H](O)[C@H](O)[C@H]1O)C3` [Rub, Rubusoside], the “inhibition of GLUT1 glucose transport activity” value on human GLUT1 (20 mM) is “reducing activity to background levels”. The IC50 at human GLUT1 (entrance counter-flow) is 4.6 mM and ~5 mM; against human GLUT5 (entrance counter-flow) it was 6.7 mM and ~5 mM and 5 mM. Also, the “inhibition of GLUT5 fructose transport activity” value on human GLUT5 (added at 20 mM) was “reducing activity to background levels”.

For the origin of these results see article PMC4549712, “Inhibition of human GLUT1 and GLUT5 by plant carbohydrate products; insights into transport specificity” (Scientific Reports, 2015).
